We go through 9 compounds from patent publication US20200031778A1, “NOVEL 5-SUBSTITUTED IMIDAZOLYLMETHYL DERIVATIVES” (Bayer CropScience Aktiengesellschaft, priority 2016, published 2020).

Each structure is given as a SMILES string. Read-outs that look alike come from different tables or passages of the source.

In series [1] the test system is Uromyces appendiculatus. Briefly: Example E: in vivo preventive test on Uromyces appendiculatus (bean rust). To be noted: 264 h, read-out: efficacy. The protocol:
Example E: In Vivo Preventive Test on Uromyces Appendiculatus (Bean Rust)
(§1) The active ingredients were made soluble and homogenized in a mixture of Dimethyl sulfoxide/Acetone/Tween® 80 and then diluted in water to the desired concentration.
The young plants of bean were treated by spraying the active ingredient prepared as described above. Control plants were treated only with an aqueous solution of Acetone/Dimethyl sulfoxide/Tween® 80.
After 24 hours, the plants were contaminated by spraying the leaves with an aqueous suspension of Uromyces appendiculatus spores. The contaminated bean plants were incubated for 24 hours at 20° C. and at 100% relative humidity and then for 10 days at 20° C. and at 70-80% relative humidity.
(§2) The test was evaluated 11 days after the inoculation. 0% means an efficacy which corresponds to that of the control plants while an efficacy of 100% means that no disease was observed.

The nature of series [2]: Log P by HPLC on reversed phase columns (EEC directive 79/831 Annex V.A8; methods [a], [b], [c]). The format is physicochemical. To be noted: method [a]. The gist of the method: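 Reversed-phase HPLC with LC-UV detection, 10→95% acetonitrile linear gradient; aqueous eluent 0.1% formic acid [a], 0.001 M ammonium acetate, neutral [b], or 0.1% phosphoric acid [c]. Calibrated against C3–C16 alkan-2-ones of known Log P by retention-time linear interpolation; multiple values within a method separated by "+".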

The test system of series [3] is Sphaerotheca fuliginea. Nature of the series: Example D: in vivo preventive test on Sphaerotheca fuliginea (powdery mildew on cucurbits). Conditions: Podosphaera fuliginea, 360 h, read-out: efficacy. The protocol:
Example D: In Vivo Preventive Test on Sphaerotheca Fuliginea (Powdery Mildew on Cucurbits)
as §1
The young plants of gherkin were treated by spraying the active ingredient prepared as described above. Control plants were treated only with an aqueous solution of Acetone/Dimethyl sulfoxide/Tween® 80.
After 24 hours, the plants were contaminated by spraying the leaves with an aqueous suspension of Sphaerotheca fuliginea spores. The contaminated gherkin plants were incubated for 72 hours at 18° C. and at 100% relative humidity and then for 12 days at 20° C. and at 70-80% relative humidity.
The test was evaluated 15 days after the inoculation. 0% means an efficacy which corresponds to that of the control plants while an efficacy of 100% means that no disease was observed.

The test system of series [4] is Septoria tritici. Briefly: Example C: in vivo preventive test on Septoria tritici (leaf spot on wheat). To be noted: Zymoseptoria tritici, 576 h, read-out: efficacy. The protocol:
Example C: In Vivo Preventive Test on Septoria Tritici (Leaf Spot on Wheat)
as §1
(§3) The young plants of wheat were treated by spraying the active ingredient prepared as described above. Control plants were treated only with an aqueous solution of Acetone/Dimethyl sulfoxide/Tween® 80.
After 24 hours, the plants were contaminated by spraying the leaves with an aqueous suspension of Septoria tritici spores. The contaminated wheat plants were incubated for 72 hours at 18° C. and at 100% relative humidity and then for 21 days at 20° C. and at 90% relative humidity.
The test was evaluated 24 days after the inoculation. 0% means an efficacy which corresponds to that of the control plants while an efficacy of 100% means that no disease was observed.

Series [5] deals with Puccinia recondita. Briefly: Example B: in vivo preventive test on Puccinia recondita (brown rust on wheat). To be noted: 264 h, read-out: efficacy. The protocol:
Example B: In Vivo Preventive Test on Puccinia Recondita (Brown Rust on Wheat)
as §1, §3
After 24 hours, the plants were contaminated by spraying the leaves with an aqueous suspension of Puccinia recondita spores. The contaminated wheat plants were incubated for 24 hours at 20° C. and at 100% relative humidity and then for 10 days at 20° C. and at 70-80% relative humidity.
as §2

The mark [6] stands for this setting: 500 ppm of active ingredient, bean plants, preventive spray, evaluated 11 days after inoculation.
[7] abbreviates: reversed phase HPLC column, HPLC on reversed phase columns.
The mark [8] stands for this setting: 500 ppm of active ingredient, gherkin plants, preventive spray, evaluated 15 days after inoculation.
[9] abbreviates: 500 ppm of active ingredient, wheat plants, preventive spray, evaluated 24 days after inoculation.
Where [10] appears, read: 500 ppm of active ingredient, wheat plants, preventive spray, evaluated 11 days after inoculation.

For the compound `CC(O)(Cn1cncc1F)c1cnc(Oc2ccc(Br)cc2)cc1C(F)(F)F` (stereo not drawn) [I-210, 2-[6-(4-bromophenoxy)-4-(trifluoromethyl)-3-pyridyl]-1-(5-fluoroimidazol-1-yl)propan-2-ol], the pest or weed control at 500 ppm in series [1] (setting [6]) was 90 to 100%; in series [3] (setting [8]), 90 to 100%; in series [4] (setting [9]), 90 to 100%; in series [5] (setting [10]) it was 70 to 79%. Further, in series [2] (setting [7]), the chromatographic logP is 2.37.

Turning to `CC(O)(Cn1cncc1C#N)c1ccc(Oc2ccc(Br)cc2)cc1C(F)(F)F` (stereo not drawn) [I-208, 1-{2-[4-(4-bromophenoxy)-2-(trifluoromethyl)phenyl]-2-hydroxypropyl}-1H-imidazole-5-carbonitrile], the pest or weed control at 500 ppm in series [1] (setting [6]) is 90 to 100%; in series [3] (setting [8]) it was 90 to 100%; in series [4] (setting [9]), 70 to 79%; in series [5] (setting [10]), 90 to 100%. Besides, the chromatographic logP in series [2] (setting [7]) amounted to 3.62.

In the case of `OC(Cn1cncc1F)c1cnc(Oc2ccc(Br)cc2)cc1C(F)(F)F` (stereo not drawn) [I-97, 1-[6-(4-bromophenoxy)-4-(trifluoromethyl)-3-pyridyl]-2-(5-fluoroimidazol-1-yl)ethanol], the pest or weed control at 500 ppm in series [1] (setting [6]) was 90 to 100%; in series [3] (setting [8]), 90 to 100%; in series [4] (setting [9]), 90 to 100%; in series [5] (setting [10]) it was 70 to 79%. The compound also returned a chromatographic logP in series [2] (setting [7]) of 2.25.

As for `C=CC(C)C(O)(Cn1cncc1C#N)C1(Cl)CC1` (stereo not drawn) [I-311, 1-[2-(1-chlorocyclopropyl)-2-hydroxy-3-methylpent-4-en-1-yl]-1H-imidazole-5-carbonitrile], the pest or weed control at 500 ppm in series [1] (setting [6]) was 90 to 100%; in series [3] (setting [8]), 90 to 100%; in series [4] (setting [9]), 90 to 100%; in series [5] (setting [10]) it was 80 to 89%. The compound further gave a chromatographic logP in series [2] (setting [7]) of 2.21.

Take `N#Cc1cncn1CC(O)(c1ccc(-c2ccc(Cl)cc2)cc1Cl)C1(F)CC1` (stereo not drawn) [I-393, 3-[2-[2-chloro-4-(4-chlorophenyl)phenyl]-2-(1-fluorocyclopropyl)-2-hydroxy-ethyl]imidazole-4-carbonitrile]: the pest or weed control at 500 ppm in series [1] fell in the range of 90 to 100%; in series [3] it was 90 to 100%; in series [4] it was 80 to 89%; in series [5], 90 to 100%. Further, the chromatographic logP in series [2] (setting [7]) came to 3.64.

For `CC(O)(Cn1cncc1C#N)c1ccc(Oc2ccc(Br)cc2)cc1Cl` (stereo not drawn) [I-195, 3-[2-[4-(4-bromophenoxy)-2-chloro-phenyl]-2-hydroxy-propyl]imidazole-4-carbonitrile], the pest or weed control at 500 ppm in series [1] (setting [6]), in series [3] (setting [8]), in series [4] (setting [9]) and in series [5] (setting [10]) was 90 to 100% throughout. Further, the chromatographic logP in series [2] (setting [7]) was found to be 3.55.

For the compound `C#Cc1ccc(C(O)(Cn2cncc2C#N)C2(F)CC2)c(Cl)c1` (stereo not drawn) [I-395, 3-[2-(2-chloro-4-ethynyl-phenyl)-2-(1-fluorocyclopropyl)-2-hydroxy-ethyl]imidazole-4-carbonitrile], the pest or weed control at 500 ppm in series [1] was in the range of 90 to 100%; in series [3], 90 to 100%; in series [4] it was 90 to 100%; in series [5], 80 to 89%. Besides, the chromatographic logP in series [2] (HPLC on reversed phase columns) was 2.39.

In the case of `C#CCOc1ccc(C(O)(Cn2cncc2C#N)C2(F)CC2)c(F)c1` (stereo not drawn) [I-506, 3-[2-(1-fluorocyclopropyl)-2-(2-fluoro-4-prop-2-ynoxy-phenyl)-2-hydroxy-ethyl]imidazole-4-carbonitrile], the pest or weed control at 500 ppm was 80 to 89% in series [1], 90 to 100% in series [3], 90 to 100% in series [4] and 80 to 89% in series [5]. In series [2] (HPLC on reversed phase column), this compound yielded a chromatographic logP of 2.23.

With `NC(=S)c1cncn1CC(O)(c1ccc(Br)cc1Cl)C1(F)CC1` (stereo not drawn) [I-432, 3-[2-(4-bromo-2-chloro-phenyl)-2-(1-fluorocyclopropyl)-2-hydroxy-ethyl]imidazole-4-carbothioamide], the pest or weed control at 500 ppm in series [1] (setting [6]), in series [3] (setting [8]), in series [4] (setting [9]) and in series [5] (setting [10]) was 90 to 100% in each case. In series [2] (setting [7]), this compound showed a chromatographic logP of 1.75.
